Starred links: 1 amine or outer side, 2 acyl side, 3 side chain; linkers in the order of their positions; H or OH if unused. Positions of bridges follow the written chain, without caps; N, C: chain ends. Non-standard residues stand in square brackets, D forms with d. Residues, ends and D or L forms follow the SMILES beside them. Groups on a side chain read outwards from the residue. *: point of attachment. X1 = CCN1C(=CC=CC2=[N+](CCCCCC(=O)*)c3ccc(S(=O)(=O)O)cc3C2(C)C)C(C)(C)c2cc(S(=O)(=O)[O-])ccc21; d(εLys) = N[C@H](CCCCN[*:1])C(=O)[*:2]; X2 = O=C(CC1(S[*:2])CCCCC1)[*:1]; PEG5 = NCCOCCOCCOCCOCCOCCC(=O)O; Orn = NCCC[C@H](N)C(=O)O; Mpa = O=C(O)CCS
Key:
[1] = target: T1, hOTR-GFP in HEK293 cells (Homo sapiens, UniProt P30559); experiment: hOTR-GFP internalization and tracer uptake, confocal microscopy after fixation/ICC; format: cell-based; set-up: expressed in transfected cells
T1 sequence (P30559 1-389): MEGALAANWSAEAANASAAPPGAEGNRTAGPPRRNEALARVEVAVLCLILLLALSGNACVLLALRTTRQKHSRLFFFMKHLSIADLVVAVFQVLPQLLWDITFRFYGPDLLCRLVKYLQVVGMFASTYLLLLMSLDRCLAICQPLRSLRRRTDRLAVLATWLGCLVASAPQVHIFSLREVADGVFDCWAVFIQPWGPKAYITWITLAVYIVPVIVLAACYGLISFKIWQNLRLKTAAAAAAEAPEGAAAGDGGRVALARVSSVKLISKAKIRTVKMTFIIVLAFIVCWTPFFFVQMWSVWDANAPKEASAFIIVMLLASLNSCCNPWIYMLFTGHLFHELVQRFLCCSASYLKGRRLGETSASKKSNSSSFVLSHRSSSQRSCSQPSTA
Source text: To validate the application scope of our tracers for biological systems and post‐hoc imaging, we used HEK293 cells stably overexpressing human OTR or V1aR, tagged with a C‐terminal fused green fluorescent protein to visualize receptor trafficking (hOTR‐GFP or hV1aR‐GFP, respectively).
subsequently washed with PBS and processed for immunocytochemistry.
Immunocytochemistry and imaging. Unspecific protein binding was quenched with 5% normal donkey serum
(Jackson ImmunoResearch), 2% bovine serum albumin (Sigma-Aldrich, Merck), and 0.2% Triton X-100 (Sigma-
Aldrich, Merck) in PBS. Next, cells were exposed to primary antibody cocktails containing FITC-conjugated goat-
anti-GF (1:2000, Sigma-Aldrich, Merck) and mouse pCREB (1:300, Sigma-Aldrich, Merck) in PBS with 2%
normal donkey serum, 0.1% BSA, and 0.2% Triton X-100 overnight at 4°C. After three PBS washing steps, wells
were incubated with secondary antibody cocktails (1:400, Jackson Immuno Research) containing suitable
were mounted with glycerol gelatin (Sigma-Aldrich, Merck) and imaged on a Zeiss LSM 780/880 confocal
microscope (Zeiss). Images were analyzed and equally contrasted for visualization with ZEN Pro (Zeiss) and

[2] = test system: mouse embryonic hippocampal neurons; experiment: Tracer uptake in primary mouse hippocampal neurons; format: cell-based
Procedure: (§1) Finally, we evaluated whether tracer (11) is applicable in primary cells endogenously expressing OTR.
(§2) Primary UtSMC and hippocampal neuronal cultures.
(§3) Muscle Cell Basal Medium 2 (PromoCell), including supplements (PromoCell) and P/S (Gibco) at 37°C and 5%
(§4) CO2. Cells were trypsinized with 0.1% Trypsin/EDTA (Gibco) and plated on glass -bottom 96-well plates (CellVis)
(§5) at a density of 10,000 cells/well in full growth medium. The next day, cells were stimulated with tracer ( 11), OTA ,
(§6) dissociated with flame -polishe d Pasteur pipettes in Hank’s balanced salt solution (HBSS, Gibco). Tissue pieces
(§7) were subsequently enzymatically dissociated with 0.1% Trypsin/EDTA (Gibco) in Neurobasal A (NBA, Gibco)
(§8) containing 1,000U/mL DNase (Sigma) for 5 min at 37°C. Cells were triturated with flamed Pasteur pipettes,
(§9) filtered through a 40 µm nylon mesh ( Thermo Fisher Scientific ), centrifuged at 200 g for 5 min, and washed up to
(§10) three times in NBA containing P/S (Gibco), GlutaMax (Gibco) , and B27 supplement (Gibco). Cells were plated at
(§11) 20,000 cells/well on PDL -coated (Sigma) glass -bottom black 96 -well microscopy plates (Cellvis) and grown at
(§12) 37°C with 5% CO 2. Half of the medium was replaced every 3 -4 days. After 13 -14 days in vitro , neuronal cultures
(§13) were exposed to 100 nM tracer ( 11) for one hour, with or without 30-min pretreatment with 10 µM of the peptide
antagonist OTA. […]

[3] = target: T1, hOTR-GFP in HEK293 cells; experiment: Live-cell imaging (ZEISS Lattice SIM) of hOTR-GFP internalization; settings: 10 and 100 nM tracer
Procedure: We first exposed hOTR‐GFP cells to 10 and 100 nM of tracer (11) during acquisition with a ZEISS Lattice SIM microscope (Movies S1 and S2). […] To further disentangle the dynamics of our tracer‐mediated OTR engagement and trafficking, we evaluated its applicability in single‐particle tracking (SPT) in living cells. We cultured HEK293 (parent cells) and HEK293 cells stably expressing hOTR‐GFP (HEK293‐hOTR‐GFP) and performed total internal reflection microscopy (TIRFM) SPT universal point accumulation imaging in nanoscale topography (uPAINT) following the addition of 1 nM of tracer (10). […] This concentration was selected to facilitate the detection and tracking of single molecules of the fluorescent agonist tracer following binding to hOTR at the plasma membrane by uPAINT. […] We first assessed the number of tracks (indicative of the number of single molecules detected/tracked). […] We quantified the mean squared displacement of each trajectory to calculate its apparent diffusion coefficient. The diffusion coefficient of each trajectory of the tracer bound to hOTR was plotted as a frequency distribution (Figure 7b2 ).
Live cell imaging. For 3D live cell imaging, attached and serum -starved HEK293-hOTR-GFP cells in 96-well
glass bottom plates were imaged on a ZEISS Lattice SIM Microscope using a 40x oil objective and SIM 2 post- […]

[4] = target: T2, hOTR (Homo sapiens, UniProt P30559); experiment: Radioligand displacement and saturation binding, membranes of HEK293 cells stably expressing hOTR, [3H]-OT; settings: for Ki: [3H]-OT, mean ± SD, duplicates, at least three independent experiments, read-out: Ki hOTR
T2 construct: expressed in transfected cells
T2 sequence (P30559 1-389): T1 sequence (P30559 1-389)
Procedure: (§14) Membrane preparation for radioligand assays. HEK293 cells were used for stable expression of GFP-tagged
(§15) human OTR, V1aR, V1bR, and V2R isoforms and transient expression of murine OTR, V1aR, V1bR, and V2R
(§16) isoforms. Cell culture work was performed under sterile conditions with DMEM high glucose containing 10%
(§17) FBS, and 50 U/mL P/S. Cells were cultured in 10 cm diameter cell culture dishes at 37°C in a humidified
(§18) atmosphere with 5% CO2, and cells were passaged at 70-90% confluency.
(§19) medium of stable cell lines at 0.5 mg/mL to sustain selection pressure, and cells were harvested at 90% confluency
(§20) for membrane preparation. For transient expression of murine receptors, 60% confluent wild-type HEK293 cells
(§21) were transfected using the jetPRIME transfection reagent according to the manufacturer’s protocol and harvested
(§22) 48 h post-transfection. For membrane preparation, cells were washed with ice-cold PBS pH 7.4, scraped into fresh
(§23) PBS on ice, and centrifuged at 4°C and 178 g for 10 min. The pellet was resuspended in a TRIS buffer solution
(§24) ice-cold water bath sonicator. The obtained solution was centrifuged for 20 min at 54,192 g and 4°C. The obtained
(§25) pellet was resuspended in TRIS buffer without protease inhibitors, homogenized with an ultrasonicator, aliquoted,
(§26) and stored at -80°C until further use. A BCA assay was used to determine the protein concentration of the
(§27) Radioligand displacement and saturation experiments. Assay solutions consisting of competing ligand,
(§28) radioligand, and membrane preparation were incubated for 1 h at 37°C. Standard binding buffer solution (50 mM
(§29) TRIS, 5 mM MgCl2, 0.1% BSA, pH 7.4) was used to prepare all dilutions; the final assay volume was 200 µL.
(§30) concentrations were 8 μg/vial for hOTR, 5 μg/vial for hV1aR, and 3 μg/vial for hV1bR and hV2R, respectively , and
(§31) 4 μg/vial for mOTR, 1.5 μg/vial for m V1aR, 3 μg/vial for mV 1bR, and 10 μg/vial for mV 2R. To assess non-specific
Specific binding was determined by
(§32) subtraction of the non-specific binding from the total binding. In radioligand displacement experiments, semi -
(§33) logarithmically spaced concentrations of respective test ligands were applied to determine K i values based on
(§34) assessed Kd values of radiotracers and by fitting the data to a three -parameter logistic Hill equation and applying
(§35) the Cheng and Prusoff approximation. 10 In case of human receptors from stable cell lines, Kd and Bmax values were
(§36) In case of murine receptors from transient
(§37) was performed using GraphPad Prism (version 9.5.1) . After incubation, membranes were filtered and washed on
(§38) a Skatron Cell Harvester using polyethyleneimine -coated glass fiber filters (type B, soaked in 0.1% aqueous
1 mM MgCl2, pH 7.4, 4°C). The soaked filter pieces were transferred into counter vials, and 2 mL of scintillation
cocktail (LSC Universalcocktail) was added to each vial. After 1 h incubation at 25°C on a shaker, radioligand
concentration was determined using a Tri -Carb liquid scintillation analyzer.
response curves were obtained from radioligand displacement experiments of membrane preparations of HEK293
Values were normalized to the percentage
of maximum binding (i.e., no competing ligand present). Specific binding was obtained from the subtraction of
non-specific binding from total binding. K i values were derived from one-site-fitted competition binding curves.

[5] = target: T3, mV2R (Mus musculus, UniProt O88721); experiment: Radioligand displacement, membranes of HEK293 cells transiently expressing mV2R; format: binding; settings: murine receptor, transient expression; mean ± SD
T3 construct: expressed in transfected cells; host or cells: wild-type HEK293, transient transfection (jetPRIME); membrane preparation
Procedure: as §14, §15, §16, §17, §18, §19, §20, §21, §22, §23
(§39) The obtained solution was centrifuged for 20 min at 54,192 g and 4°C. The obtained […]
(§40) assessed Kd values of radiotracers and by fitting the data to a three -parameter logistic Hill equation and applying […]
(§41) concentration was determined using a Tri -Carb liquid scintillation analyzer. […]

[6] = test system: human uterine smooth muscle cells (UtSMC); experiment: Stimulation of primary human uterine smooth muscle cells (UtSMC); format: cell-based
Procedure: as §1, §2, §3, §4, §5, §6, §7, §8, §9, §10, §11, §12, §13
antagonist OTA. In parallel, neurons were exposed to 100 nM of the scrambled tracer SCR for 1 h. After
stimulations, cells were washed with ice-cold PBS and fixed with 4% paraformaldehyde for 30 min on ice. Next,
washed again in PBS, and directly imaged on a Zeiss LSM880 confocal microscope.

[7] = target: T4, hV1aR (Homo sapiens, UniProt P37288); experiment: Radioligand displacement and saturation binding, membranes of HEK293 cells stably expressing hV1aR, [3H]-VP; settings: read-out: Ki hV1aR
T4 construct: expressed in transfected cells
Procedure: as §14, §15, §16, §17, §18, §19, §20, §21, §22, §23
(§42) ice-cold water bath sonicator. The obtained solution was centrifuged for 20 min at 54,192 g and 4°C. The obtained […]
Specific binding was determined by […]
as §40, §41

[8] = test system: rat embryonic hippocampal neurons; experiment: Tracer uptake in primary rat hippocampal neurons; format: cell-based; settings: 10 µM, 30 min
Procedure: as §1, §2, §3, §4, §5, §6, §7, §8, §9, §10, §11, §12, §13
antagonist OTA. […]

[9] = target: T5, mOTR (Mus musculus, UniProt P97926); experiment: Radioligand displacement, membranes of HEK293 cells transiently expressing mOTR; format: binding, murine
T5 construct: expressed in transfected cells; host or cells: wild-type HEK293, transient transfection (jetPRIME); membrane preparation
T5 sequence (P97926 1-388): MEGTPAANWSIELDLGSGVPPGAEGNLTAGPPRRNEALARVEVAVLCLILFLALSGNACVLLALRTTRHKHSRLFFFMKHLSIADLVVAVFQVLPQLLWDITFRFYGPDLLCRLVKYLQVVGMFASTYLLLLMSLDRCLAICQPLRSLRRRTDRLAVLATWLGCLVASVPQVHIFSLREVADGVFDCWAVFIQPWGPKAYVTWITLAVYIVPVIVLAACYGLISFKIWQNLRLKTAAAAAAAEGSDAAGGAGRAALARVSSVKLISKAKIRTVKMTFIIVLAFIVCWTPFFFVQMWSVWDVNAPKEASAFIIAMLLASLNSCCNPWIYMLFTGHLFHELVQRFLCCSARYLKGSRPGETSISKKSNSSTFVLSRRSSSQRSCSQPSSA
Procedure: as §14, §15, §16, §17, §18, §19, §20, §21, §22, §23, §24, §25, §26, §27, §28, §29, §30, §31
Specific binding was determined by
as §32, §33, §34, §35, §36, §37, §38
1 mM MgCl2, pH 7.4, 4°C). […]
as §41

[10] = target: T6, hV1bR (Homo sapiens, UniProt P47901); experiment: Radioligand displacement and saturation binding, membranes of HEK293 cells stably expressing hV1bR, [3H]-VP; settings: read-out: Ki hV1bR
T6 construct: expressed in transfected cells; membrane preparation
T6 sequence (P47901 1-424): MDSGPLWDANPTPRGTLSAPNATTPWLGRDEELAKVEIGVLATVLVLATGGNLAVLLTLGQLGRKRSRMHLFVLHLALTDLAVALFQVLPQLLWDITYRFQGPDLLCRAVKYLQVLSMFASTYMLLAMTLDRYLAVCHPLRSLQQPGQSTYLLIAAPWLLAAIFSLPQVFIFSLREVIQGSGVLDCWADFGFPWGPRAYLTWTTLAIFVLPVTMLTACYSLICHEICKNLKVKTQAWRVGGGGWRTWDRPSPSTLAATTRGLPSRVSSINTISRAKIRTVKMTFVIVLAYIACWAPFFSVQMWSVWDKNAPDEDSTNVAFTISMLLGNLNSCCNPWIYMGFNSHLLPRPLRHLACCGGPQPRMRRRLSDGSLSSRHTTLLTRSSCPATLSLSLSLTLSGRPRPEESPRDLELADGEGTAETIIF
Procedure: as §14, §15, §16, §17, §18, §19, §20, §21, §22, §23, §42
Specific binding was determined by […]
as §40, §41

[11] = target: T7, mV1bR (Mus musculus, UniProt Q9WU02); experiment: Radioligand displacement, membranes of HEK293 cells transiently expressing mV1bR; format: binding; settings: murine receptor, transient expression; mean ± SD
T7 construct: expressed in transfected cells; host or cells: wild-type HEK293, transient transfection (jetPRIME); membrane preparation
T7 sequence (Q9WU02 1-421): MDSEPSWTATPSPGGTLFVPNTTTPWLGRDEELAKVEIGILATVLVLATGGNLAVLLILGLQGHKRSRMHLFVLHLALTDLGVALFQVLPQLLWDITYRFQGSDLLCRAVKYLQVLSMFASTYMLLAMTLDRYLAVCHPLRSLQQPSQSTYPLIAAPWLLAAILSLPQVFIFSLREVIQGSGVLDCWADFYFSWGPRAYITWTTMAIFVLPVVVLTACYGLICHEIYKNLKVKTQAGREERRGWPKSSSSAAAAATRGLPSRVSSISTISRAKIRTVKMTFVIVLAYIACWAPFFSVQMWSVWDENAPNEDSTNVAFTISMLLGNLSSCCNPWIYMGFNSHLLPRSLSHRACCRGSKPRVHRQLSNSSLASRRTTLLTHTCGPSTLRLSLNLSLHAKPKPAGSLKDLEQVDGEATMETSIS
Procedure: as §14, §15, §16, §17, §18, §19, §20, §21, §22, §23, §39, §40, §41

[12] = target: T8, mV1aR (Mus musculus, UniProt Q62463); experiment: Radioligand displacement, membranes of HEK293 cells transiently expressing mV1aR; format: binding; settings: murine receptor, transient expression; mean ± SD
T8 construct: expressed in transfected cells; host or cells: wild-type HEK293, transient transfection (jetPRIME); membrane preparation
Procedure: as §14, §15, §16, §17, §18, §19, §20, §21, §22, §23, §39, §40, §41

[13] = target: T9, hV2R (Homo sapiens, UniProt P30518); experiment: Radioligand displacement and saturation binding, membranes of HEK293 cells stably expressing hV2R, [3H]-VP; settings: read-out: Ki hV2R
T9 construct: expressed in transfected cells; membrane preparation
T9 sequence (P30518 whole entry): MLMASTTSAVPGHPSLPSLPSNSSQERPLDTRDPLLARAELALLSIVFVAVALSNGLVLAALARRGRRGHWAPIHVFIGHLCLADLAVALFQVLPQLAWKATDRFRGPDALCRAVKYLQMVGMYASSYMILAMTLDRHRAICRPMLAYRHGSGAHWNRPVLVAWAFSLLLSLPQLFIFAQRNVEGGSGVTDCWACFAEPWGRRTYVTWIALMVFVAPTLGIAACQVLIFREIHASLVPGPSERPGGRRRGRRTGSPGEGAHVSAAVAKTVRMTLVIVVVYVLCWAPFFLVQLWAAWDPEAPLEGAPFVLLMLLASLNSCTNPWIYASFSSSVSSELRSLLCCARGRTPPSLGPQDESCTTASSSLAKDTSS
Procedure: as §14, §15, §16, §17, §18, §19, §20, §21, §22, §23, §42
Specific binding was determined by […]
as §40, §41

T3 sequence (O88721 whole entry): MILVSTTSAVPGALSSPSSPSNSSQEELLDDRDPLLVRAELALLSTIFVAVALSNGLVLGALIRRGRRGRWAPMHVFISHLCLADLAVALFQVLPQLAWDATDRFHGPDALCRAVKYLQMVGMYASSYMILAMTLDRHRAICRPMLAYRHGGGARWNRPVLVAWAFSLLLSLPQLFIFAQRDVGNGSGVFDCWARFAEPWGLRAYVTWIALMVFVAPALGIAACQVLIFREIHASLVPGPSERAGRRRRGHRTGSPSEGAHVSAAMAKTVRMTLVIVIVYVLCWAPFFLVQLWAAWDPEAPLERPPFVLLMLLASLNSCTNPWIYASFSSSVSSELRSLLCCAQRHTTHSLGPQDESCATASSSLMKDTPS
T4 sequence (P37288 whole entry): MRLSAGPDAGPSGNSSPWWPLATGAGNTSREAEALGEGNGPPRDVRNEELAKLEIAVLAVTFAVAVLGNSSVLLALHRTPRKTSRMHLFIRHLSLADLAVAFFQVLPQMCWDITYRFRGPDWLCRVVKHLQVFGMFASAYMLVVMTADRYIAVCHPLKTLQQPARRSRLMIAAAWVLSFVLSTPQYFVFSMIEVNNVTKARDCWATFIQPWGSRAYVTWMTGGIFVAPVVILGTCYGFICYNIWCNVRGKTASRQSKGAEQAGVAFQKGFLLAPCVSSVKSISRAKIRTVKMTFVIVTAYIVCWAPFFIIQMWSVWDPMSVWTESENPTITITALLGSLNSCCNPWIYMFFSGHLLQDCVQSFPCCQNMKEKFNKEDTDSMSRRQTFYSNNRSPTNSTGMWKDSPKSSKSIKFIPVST
T8 sequence (Q62463 whole entry): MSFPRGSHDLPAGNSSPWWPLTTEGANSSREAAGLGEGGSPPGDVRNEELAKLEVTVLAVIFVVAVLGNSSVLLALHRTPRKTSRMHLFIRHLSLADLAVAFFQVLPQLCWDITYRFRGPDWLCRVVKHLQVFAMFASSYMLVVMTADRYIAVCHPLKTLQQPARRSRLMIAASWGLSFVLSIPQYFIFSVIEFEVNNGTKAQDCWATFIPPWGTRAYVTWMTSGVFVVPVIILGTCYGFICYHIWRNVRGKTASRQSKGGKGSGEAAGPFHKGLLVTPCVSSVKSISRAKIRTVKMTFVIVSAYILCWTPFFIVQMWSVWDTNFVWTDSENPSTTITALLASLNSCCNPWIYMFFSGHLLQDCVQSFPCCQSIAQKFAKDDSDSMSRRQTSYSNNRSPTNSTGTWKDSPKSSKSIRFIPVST

Structure (SMILES): CC[C@H](C)[C@@H]1NC(=O)[C@H](Cc2ccc(O)cc2)NC(=O)CCSSC[C@@H](C(=O)N2CCC[C@H]2C(=O)N[C@@H](CCCNC(=O)[C@@H](CC(=O)O)NC(=O)CCOCCOCCOCCOCCOCCNC(=O)[C@H](N)CCCCNC(=O)CCCCC[N+]2=C(C=CC=C3N(CC)c4ccc(S(=O)(=O)[O-])cc4C3(C)C)C(C)(C)c3cc(S(=O)(=O)O)ccc32)C(=O)NCC(N)=O)NC(=O)[C@H](CC(N)=O)NC(=O)[C@H](CCC(N)=O)NC1=O [Compound 11] ([Mpa]YIQNCP[Orn]([dD-PEG5-d(εLys)-X1])G-NH2; disulfide 1-6)
- Cy3s signal accumulation in hOTR-expressing cells ([1]; post ICC, normalized to control): significant concentration‐dependent accumulation
- Tracer uptake in mouse hippocampal neurons ([2]; 100 nM, 1 h, E16.5 neurons cultured 14 days): robust uptake in subpopulations of neurons
- Time to peak internalization [3]: 5 to 10 min
- Ki [4]: 2 nM
- Ki [5]: > 10000 nM
- Contraction of UtSMC ([6]; 100 nM, live-cell imaging): induced rapid contractions within minutes
- Tracer uptake in UtSMC ([6]; 60 min treatment): accumulation was observed in vesicle‐like structures within 60 min

Structure (SMILES): CC[C@H](C)[C@@H]1NC(=O)[C@@H](Cc2ccc(O)cc2)NC(=O)CC2(CCCCC2)SSC[C@@H](C(=O)N2CCC[C@H]2C(=O)N[C@@H](CCCN)C(=O)O)NC(=O)[C@H](CC(N)=O)NC(=O)[C@H]([C@@H](C)O)NC1=O [OTR antagonist (OTA), reference compound] ([dY]ITNCP[Orn]-OH; linker N-5 via X2)
- Effect of antagonist pretreatment on hOTR-GFP internalization and accumulation of tracers (3) and (7) ([1]; 10 µM, 30 min before 1 h stimulation with 100 nM tracer): prevented hOTR‐GFP internalization and cytoplasmic accumulation
- Effect of antagonist pretreatment on tracer (11) uptake ([1]; 10 µM, 30 min pretreatment): completely prevented tracer (11) uptake
- Effect of antagonist pretreatment on tracer (13) uptake and GFP internalization ([1]; 10 µM, 30 min pretreatment, tracer (13) up to 100 nM): completely prevented
- Effect of OTA pretreatment on tracer (11) uptake in mouse hippocampal neurons ([2]; 10 µM, 30 min): completely inhibited the uptake
- Selectivity ratio hV1aR/hOTR ([4]; Ki ratio, VPR affinity divided by OTR affinity): 1.02
- Ki [4]: 44.9 ± 8.8 nM
- Ki [7]: 45.8 ± 11.9 nM
- Effect of OTA pretreatment on tracer (11) uptake in rat hippocampal neurons [8]: prevented compound (11) internalization
- Selectivity ratio mV1aR/mOTR ([9]; Ki ratio): >1500
- Selectivity ratio mV1bR/mOTR ([9]; Ki ratio): >1500
- Selectivity ratio mV2R/mOTR ([9]; Ki ratio): 510
- Ki ([9]; murine receptor, transient expression, mean ± SD): 5.9 ± 1.7 nM
- Ki [5]: 3010 ± 346 nM
- Ki [10]: > 10000 nM
- Ki [11]: > 10000 nM
- Ki [12]: > 10000 nM
- Effect of OTA pretreatment on tracer (11) in UtSMC [6]: prevented tracer uptake as well as cellular contractions and membrane blebbing
- Ki [13]: > 10000 nM

— publication PMC12603982 (Angewandte Chemie (International Ed. in English), 2025)
